Test results as given in ChEMBL document CHEMBL5154726, “Identification of triazolopyridine derivatives as a new class of AhR agonists and evaluation of anti-psoriasis effect in a mouse model” (Eur J Med Chem, 2022).
Activity calls are given as the source filed them. The rule behind the calls is not given here.

How the values were obtained:
[1] = system: Mus musculus; assay: Anti-psoriatic activity in IMQ-induced BALB/c psoriasis mouse model assessed as reduction in scaling at 5 to 20 mg/kg, po by H and E staining based analysis; assay type: functional, organism-based; conditions: dose 5-20 mg/kg
[2] = system: Mus musculus; assay: Anti-psoriatic activity in IMQ-induced BALB/c psoriasis mouse model assessed as reduction in erythema at 5 to 20 mg/kg, po by H and E staining based analysis; assay type: functional, organism-based; conditions: dose 5-20 mg/kg
[3] = system: Mus musculus; assay: Anti-psoriatic activity in IMQ-induced BALB/c psoriasis mouse model assessed as reduction in skin thickening at 0.1 to 1 % treated topically by H and E staining based analysis; assay type: functional, organism-based; conditions: dose 0.1-1 %
[4] = target: Cytochrome P450 2C9 (Homo sapiens, UniProt P11712); assay: Inhibition of CYP2C9 in human liver microsomes in presence of NADPH by LC-MS/MS analysis; assay type: ADME, Microsome
[5] = MRT in Sprague-Dawley rat at 10 mg/kg, po measured up to 24 hrs by LC-MS/MS analysis; assay type: ADME, organism-based; conditions: in vivo
[6] = system: Mus musculus; assay: Anti-psoriatic activity in IMQ-induced BALB/c psoriasis mouse model assessed as reduction in scaling at 0.1 to 1 % treated topically by H and E staining based analysis; assay type: functional, organism-based; conditions: dose 0.1-1 %
[7] = target: T1, Aryl hydrocarbon receptor (Homo sapiens, UniProt P35869); assay: Induction of Ahr nuclear translocation from cytoplasm to nucleus in human HaCaT cells at 0.01 uM incubated for 1 hr by Western blot analysis; assay type: cell-based
T1 sequence (P35869 whole entry): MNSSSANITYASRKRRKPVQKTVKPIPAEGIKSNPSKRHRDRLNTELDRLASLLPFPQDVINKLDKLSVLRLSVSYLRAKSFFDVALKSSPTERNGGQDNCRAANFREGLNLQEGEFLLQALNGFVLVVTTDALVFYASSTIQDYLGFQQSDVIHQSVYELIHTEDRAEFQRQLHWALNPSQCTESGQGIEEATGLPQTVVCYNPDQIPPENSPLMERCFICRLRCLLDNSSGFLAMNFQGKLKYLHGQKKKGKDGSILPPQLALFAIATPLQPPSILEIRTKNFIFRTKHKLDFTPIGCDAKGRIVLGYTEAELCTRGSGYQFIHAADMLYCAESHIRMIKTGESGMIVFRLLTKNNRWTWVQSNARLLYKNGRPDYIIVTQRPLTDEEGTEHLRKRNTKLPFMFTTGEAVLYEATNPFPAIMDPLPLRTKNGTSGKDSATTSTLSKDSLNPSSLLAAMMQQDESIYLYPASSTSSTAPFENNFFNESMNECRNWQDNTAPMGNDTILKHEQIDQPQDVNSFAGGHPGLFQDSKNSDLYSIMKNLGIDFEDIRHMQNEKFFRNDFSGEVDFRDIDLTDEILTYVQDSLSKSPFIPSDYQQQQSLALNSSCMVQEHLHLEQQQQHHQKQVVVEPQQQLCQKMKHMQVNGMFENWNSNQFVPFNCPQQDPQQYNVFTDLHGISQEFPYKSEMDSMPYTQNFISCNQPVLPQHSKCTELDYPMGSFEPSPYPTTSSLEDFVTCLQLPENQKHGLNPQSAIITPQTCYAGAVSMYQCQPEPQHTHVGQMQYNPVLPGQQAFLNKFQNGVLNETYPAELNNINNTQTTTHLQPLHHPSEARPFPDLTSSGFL

[8] = system: HaCaT; assay: Downregulation of CYP1A1 gene expression in AhR knockdown human HaCaT cells incubated for 48 hrs by qRT-PCR analysis; assay type: functional, cell-based
[9] = Clearance in Sprague-Dawley rat at 5 mg/kg, iv measured up to 24 hrs by LC-MS/MS analysis; assay type: ADME, organism-based; conditions: in vivo
[10] = AUC (0 to t) in Sprague-Dawley rat at 5 mg/kg, iv measured up to 24 hrs by LC-MS/MS analysis; assay type: ADME, organism-based; parameters: dose 5 mg/kg, time < 24 hrs, route iv; conditions: in vivo
[11] = target: T1, Aryl hydrocarbon receptor; assay: Induction of Ahr nuclear translocation in human HaCaT cells at 10 uM incubated for 90 mins by immunofluorescence analysis; assay type: cell-based; conditions: 1.5 h
[12] = AUC (0 to infinity) in Sprague-Dawley rat at 5 mg/kg, iv measured up to 24 hrs by LC-MS/MS analysis; assay type: ADME, organism-based; parameters: dose 5 mg/kg, time < 24 hrs, route iv; conditions: in vivo
[13] = AUC (0 to infinity) in Sprague-Dawley rat at 10 mg/kg, po measured up to 24 hrs by LC-MS/MS analysis; assay type: ADME, organism-based; parameters: time < 24 hrs, dose 10 mg/kg, route po; conditions: in vivo
[14] = Oral bioavailability in Sprague-Dawley rat at 10 mg/kg measured up to 24 hrs by LC-MS/MS analysis; assay type: ADME, organism-based; conditions: in vivo
[15] = system: Mus musculus; assay: Anti-psoriatic activity in IMQ-induced BALB/c psoriasis mouse model assessed as reduction in IL-17a expression at 5 to 20 mg/kg, po by qRT-PCR analysis; assay type: functional, organism-based; conditions: dose 5-20 mg/kg
[16] = Efflux ratio of apparent permeability in MDCK cells; assay type: ADME, cell-based, Canis lupus familiaris; conditions: dog
[17] = Cytotoxicity against human LX2 cells assessed as reduction in cell viability measured after 72 hrs by MTT assay; assay type: toxicity, cell-based, LX-2
[18] = AUC (0 to t) in Sprague-Dawley rat at 10 mg/kg, po measured up to 24 hrs by LC-MS/MS analysis; assay type: ADME, organism-based; parameters: dose 10 mg/kg, time < 24 hrs, route po; conditions: in vivo
[19] = Apparent permeability in MDCK cells at 50 uM incubated for 90 mins by LC/MS analysis; assay type: ADME, cell-based, Canis lupus familiaris; conditions: dog
[20] = Cytotoxicity against human HUVEC cells assessed as reduction in cell viability measured after 72 hrs by MTT assay; assay type: toxicity, cell-based
[21] = target: T2, Nuclear factor erythroid 2-related factor 2 (Homo sapiens) (UniProt Q16236); assay: Activation of Nrf2 expression in human HaCaT cells up to 10 uM by qRT-PCR analysis; assay type: cell-based; conditions: filed as activator
T2 sequence (whole entry): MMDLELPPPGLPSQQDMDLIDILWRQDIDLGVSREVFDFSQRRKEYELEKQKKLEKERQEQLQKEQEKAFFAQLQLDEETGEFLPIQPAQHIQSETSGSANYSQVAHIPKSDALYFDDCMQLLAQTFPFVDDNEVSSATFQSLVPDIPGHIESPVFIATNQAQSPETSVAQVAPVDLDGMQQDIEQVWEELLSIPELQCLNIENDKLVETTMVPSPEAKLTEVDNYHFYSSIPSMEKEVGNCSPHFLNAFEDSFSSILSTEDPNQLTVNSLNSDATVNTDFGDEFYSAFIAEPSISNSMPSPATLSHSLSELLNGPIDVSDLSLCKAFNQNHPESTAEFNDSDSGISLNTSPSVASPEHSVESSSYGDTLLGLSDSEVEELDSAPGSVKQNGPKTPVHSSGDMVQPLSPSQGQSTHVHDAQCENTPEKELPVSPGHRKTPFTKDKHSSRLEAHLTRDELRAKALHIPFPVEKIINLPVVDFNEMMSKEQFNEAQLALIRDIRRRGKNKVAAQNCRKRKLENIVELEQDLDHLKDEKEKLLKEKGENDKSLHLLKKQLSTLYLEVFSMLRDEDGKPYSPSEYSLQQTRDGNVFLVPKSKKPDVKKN

Chain of Cytochrome P450 2C9 (P11712 whole entry): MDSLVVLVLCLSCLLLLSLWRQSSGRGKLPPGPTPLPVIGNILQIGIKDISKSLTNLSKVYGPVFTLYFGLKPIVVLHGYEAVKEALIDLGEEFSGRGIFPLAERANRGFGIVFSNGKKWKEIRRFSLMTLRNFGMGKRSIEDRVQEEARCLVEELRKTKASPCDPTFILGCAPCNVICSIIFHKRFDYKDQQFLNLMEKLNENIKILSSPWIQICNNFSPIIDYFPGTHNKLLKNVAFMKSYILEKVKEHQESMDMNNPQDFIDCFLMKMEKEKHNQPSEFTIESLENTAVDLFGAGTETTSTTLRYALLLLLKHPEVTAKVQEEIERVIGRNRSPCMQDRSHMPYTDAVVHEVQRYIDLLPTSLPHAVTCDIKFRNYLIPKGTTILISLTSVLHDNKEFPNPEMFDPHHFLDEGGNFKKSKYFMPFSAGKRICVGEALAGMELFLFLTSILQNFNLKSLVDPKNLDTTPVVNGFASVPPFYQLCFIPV

SMILES: Brc1ccc(-c2nc3ccc(Br)cn3n2)cc1
- Activity [1]: Active
- Activity [2]: Active
- Activity [3]: Active
- IC50 [4]: > 10 µM
- MRT [5]: 1.82 h
- Activity [6]: Active
- Activity [7]: Active
- Activity [8]: Active
- clearance [9]: 19 mL/min/kg
- AUC(0-t) at 24 h [10]: 4640 ng·h/mL
- Activity [11]: Active
- AUC(0-inf) [12]: 4640 ng·h/mL
- AUC(0-inf) [13]: 1420 ng·h/mL
- bioavailability [14]: 15.1%
- Activity [15]: Active
- efflux ratio [16]: 2.34
- IC50 at 72 h [17]: > 300 µM
- AUC(0-t) at 24 h [18]: 1400 ng·h/mL
- Papp at 1.5 h, 50 µM [19]: 3.49 ×10⁻⁶ cm/s
- IC50 at 72 h [20]: > 300 µM
- Activity [21]: Active
